The conditions of the data set: for aqueous solubility: pH 6.8.

As a reminder, the aqueous solubility is the dissolved amount per volume that the medium holds. Higher therefore signals much dissolved substance.

Structures are written as SMILES. Values after ≈ are worked out from the molar mass of the structure shown.

On to `Cc1cc(C)c2ccc(C(=O)N3CCN(c4ncc[nH]c4=O)CC3)cc2n1`, for which the MDR1-MDCK efflux ratio stood at 65.9; the intrinsic clearance, human liver microsomes is at most 4.74 mL/min/kg; the intrinsic clearance, rat liver microsomes was 53.4 mL/min/kg.
In the case of `N#Cc1cnn(-c2ccc(F)cc2)c1N`, the aqueous solubility stood at 29.2 µg/mL (≈ 144 µM).
As for `COC(=O)c1cccc2c1CCCN2C(=O)c1ccccc1`, the MDR1-MDCK efflux ratio was determined as 0.474; the intrinsic clearance, human liver microsomes turned out to be 780 mL/min/kg; the intrinsic clearance, rat liver microsomes was 2050 mL/min/kg.
For the molecule `CC(=O)N1CCc2cc(Nc3nccc(C(F)(F)F)n3)ccc21`, the intrinsic clearance, human liver microsomes came out at 130 mL/min/kg; the intrinsic clearance, rat liver microsomes worked out at 271 mL/min/kg; the aqueous solubility was determined as 1.2 µg/mL (≈ 3.72 µM).
In turn, `O=C(Cc1ccc2c(c1)CCCC2)Nc1ccc(-n2cnnn2)cc1` showed an aqueous solubility of 0.95 µg/mL (≈ 2.85 µM).
Consider `Cc1cc(F)ccc1NC(=O)c1cccc2cccnc12`, for which the MDR1-MDCK efflux ratio is 0.117 and the aqueous solubility turned out to be 0.44 µg/mL (≈ 1.57 µM).
`O=C1CCCN1CCCN1CCC(n2c(=O)[nH]c3ccccc32)CC1` returned an intrinsic clearance, human liver microsomes of at most 4.74 mL/min/kg; an intrinsic clearance, rat liver microsomes of 15.7 mL/min/kg; an aqueous solubility of 15.9 µg/mL (≈ 46.4 µM).
The molecule `O=S(=O)(NCCC(c1ccccc1)c1ccccc1)c1ccc(Cl)cc1` yielded an intrinsic clearance, human liver microsomes of 396 mL/min/kg and an intrinsic clearance, rat liver microsomes of 9320 mL/min/kg.
In turn, `CN(Cc1cnccn1)Cc1nc(N)c2ccccc2n1` came in with an intrinsic clearance, human liver microsomes of 15 mL/min/kg and an intrinsic clearance, rat liver microsomes of 458 mL/min/kg.
For `NCc1ccc(-n2cnc3ccccc32)cc1Cl` the same measures were 13 mL/min/kg and 36.1 mL/min/kg.
`CC(C)n1nccc1-c1ncccc1COc1cccc(O)c1C=O`: the intrinsic clearance, human liver microsomes stood at 150 mL/min/kg; the intrinsic clearance, rat liver microsomes came to 716 mL/min/kg; the aqueous solubility was 37.9 µg/mL (≈ 112 µM).
In the case of `Cc1nn(C)c2ncnc(N(C)Cc3cccc(Cl)c3)c12`, the MDR1-MDCK efflux ratio turned out to be 0.569; the intrinsic clearance, human liver microsomes worked out at 28.3 mL/min/kg; the intrinsic clearance, rat liver microsomes was determined as 652 mL/min/kg; the aqueous solubility was determined as 22.5 µg/mL (≈ 74.5 µM).
For `CCc1cnccc1C(=O)Nc1cnccn1`, the MDR1-MDCK efflux ratio worked out at 0.767; the intrinsic clearance, human liver microsomes was at most 4.74 mL/min/kg; the intrinsic clearance, rat liver microsomes amounted to 17.2 mL/min/kg.
In the case of `Cc1nn(C)c(C)c1NC(=O)CN1CCN(c2nccs2)CC1`, the MDR1-MDCK efflux ratio turned out to be 18.9; the intrinsic clearance, human liver microsomes was at most 4.74 mL/min/kg; the intrinsic clearance, rat liver microsomes is 14.3 mL/min/kg; the aqueous solubility came out at 58.2 µg/mL (≈ 174 µM).
Take `CC(C)(O)[C@H]1O[C@H]2CC[C@@]3(C)[C@@](O)(CC[C@H]4Cc5c([nH]c6ccccc56)[C@@]43C)C2=CC1=O`: the aqueous solubility amounted to 0.99 µg/mL (≈ 2.27 µM).
With `Cc1cnc(-c2nc(NCc3ccccn3)ncc2-c2onc(C)c2C)cn1`, the MDR1-MDCK efflux ratio came out at 10.7; the intrinsic clearance, human liver microsomes stood at 116 mL/min/kg; the intrinsic clearance, rat liver microsomes came to 1040 mL/min/kg; the aqueous solubility came out at 59 µg/mL (≈ 158 µM).
In the case of `Cc1nccc(NC(=O)c2ccncc2Cl)c1Cl`, the MDR1-MDCK efflux ratio turned out to be 0.729; the intrinsic clearance, human liver microsomes is 21.2 mL/min/kg; the intrinsic clearance, rat liver microsomes was 78.1 mL/min/kg.
For `CC(=O)N1CCC(CCNc2ccc3ccc(F)cc3n2)CC1`, the MDR1-MDCK efflux ratio came to 0.795; the intrinsic clearance, human liver microsomes was determined as 21.5 mL/min/kg; the intrinsic clearance, rat liver microsomes came to 264 mL/min/kg; the aqueous solubility came out at 46.2 µg/mL (≈ 146 µM).
`CCN(CC)CCCNc1c2c(nc3ccccc13)CCC2` returned an aqueous solubility of 25.4 µg/mL (≈ 85.6 µM).
For `COCCc1nc(CCCn2cccn2)n(C2Cc3ccccc3C2)n1`, the MDR1-MDCK efflux ratio was found to be 9.86; the intrinsic clearance, human liver microsomes was 25.1 mL/min/kg; the intrinsic clearance, rat liver microsomes came out at 550 mL/min/kg; the aqueous solubility stood at 21.4 µg/mL (≈ 60.9 µM).
On the same counts, the results for `CCOC(=S)SCC(=O)Nc1nc(-c2ccc(C3CCCCC3)cc2)cs1` are 0.229, 267 mL/min/kg, 1390 mL/min/kg and 2.18 µg/mL (≈ 5.18 µM).
As for `Cc1oc(C)c(C(=O)NCC#Cc2ccccc2)c1C`, the MDR1-MDCK efflux ratio came to 0.446; the intrinsic clearance, human liver microsomes came to 107 mL/min/kg; the intrinsic clearance, rat liver microsomes is 1320 mL/min/kg; the aqueous solubility was determined as 48 µg/mL (≈ 180 µM).
For `O/N=C1/CCCc2c1cnc1ncnn21`, the MDR1-MDCK efflux ratio is 1.67; the intrinsic clearance, human liver microsomes was at most 4.74 mL/min/kg; the intrinsic clearance, rat liver microsomes was at most 10.7 mL/min/kg.
Consider `Cc1ccc(C(=O)O)cc1NS(=O)(=O)c1csc(C(=O)Nc2ccccc2)c1`, for which the MDR1-MDCK efflux ratio amounted to 0.879; the intrinsic clearance, human liver microsomes was at most 4.74 mL/min/kg; the intrinsic clearance, rat liver microsomes is at most 10.7 mL/min/kg; the aqueous solubility came to 61.5 µg/mL (≈ 148 µM).
`Cc1nc2ncc3c(n2n1)CCCC3=O`: the MDR1-MDCK efflux ratio came to 0.752; the intrinsic clearance, human liver microsomes is at most 4.74 mL/min/kg; the intrinsic clearance, rat liver microsomes is at most 10.7 mL/min/kg.
As to `CCc1noc(C2CCC(NCC3CCC(F)(F)CC3)CC2)n1` (configuration not stated), the MDR1-MDCK efflux ratio came out at 2.98; the intrinsic clearance, human liver microsomes amounted to 54.4 mL/min/kg; the intrinsic clearance, rat liver microsomes is 240 mL/min/kg; the aqueous solubility came out at 75.9 µg/mL (≈ 232 µM).
In the case of `Cn1nc(-c2cc(F)cc(F)c2)cc1N`, the MDR1-MDCK efflux ratio worked out at 0.607; the intrinsic clearance, human liver microsomes was found to be 43.8 mL/min/kg; the intrinsic clearance, rat liver microsomes worked out at 48.7 mL/min/kg.
For the molecule `c1cc(Nc2cc(C3CC3)[nH]n2)nc(Nc2ccc3nc[nH]c3c2)n1`, the MDR1-MDCK efflux ratio worked out at 2.39; the intrinsic clearance, human liver microsomes came to 15.1 mL/min/kg; the intrinsic clearance, rat liver microsomes came to 71.4 mL/min/kg.
Turning to `CC(C)c1ccc(-c2cc3c(=O)n(CCC(=O)NCCN(C)C)ccn3n2)cc1`, the MDR1-MDCK efflux ratio was found to be 86.7; the intrinsic clearance, human liver microsomes was 182 mL/min/kg; the intrinsic clearance, rat liver microsomes came out at 142 mL/min/kg; the aqueous solubility was found to be 55.7 µg/mL (≈ 141 µM).
Turning to `O=c1[nH]c2cnccc2n1Cc1ccccc1`, the MDR1-MDCK efflux ratio was 1.55; the intrinsic clearance, human liver microsomes is at most 4.74 mL/min/kg; the intrinsic clearance, rat liver microsomes came to 47.9 mL/min/kg; the aqueous solubility turned out to be 31.5 µg/mL (≈ 140 µM).
For `O=C(CCNc1ncccn1)N1CCc2ccccc2C1` the same measures were 1.23, 24.8 mL/min/kg, 146 mL/min/kg and 35.1 µg/mL (≈ 124 µM).
On the same counts, the results for `Cn1ccc2c(C(=O)Nc3ncn(Cc4cccnc4)n3)cccc21` are 54.9, at most 4.74 mL/min/kg, 30.9 mL/min/kg and 42.5 µg/mL (≈ 128 µM).
For `CC(C)c1cnc(COc2ccc(Br)nc2)o1` the same measures were 0.527, 73 mL/min/kg, 983 mL/min/kg and 41.7 µg/mL (≈ 140 µM).
Consider `O=C(NCCc1ccc(F)cc1)n1ccnc1`, for which the intrinsic clearance, human liver microsomes was 39.7 mL/min/kg and the intrinsic clearance, rat liver microsomes is 95.6 mL/min/kg.
On to `CN(C)CCOc1ccc(-c2nc(-c3ccncc3)c(-c3ccc4c(c3)CC/C4=N\O)[nH]2)cc1`, for which the MDR1-MDCK efflux ratio amounted to 4.8; the intrinsic clearance, human liver microsomes is 12.7 mL/min/kg; the intrinsic clearance, rat liver microsomes came to 171 mL/min/kg; the aqueous solubility is 1.1 µg/mL (≈ 2.43 µM).
For `CCn1c(-c2nonc2N)nc2cnc(Oc3cccc(NC(=O)c4ccc(OCCN5CCOCC5)cc4)c3)cc21`, the MDR1-MDCK efflux ratio came to 7.8; the fraction unbound, human plasma amounted to 0.00355; the fraction unbound, rat plasma was 0.00473; the intrinsic clearance, human liver microsomes was found to be 101 mL/min/kg. The intrinsic clearance, rat liver microsomes is 232 mL/min/kg.
For `CN1CCC(CNc2nccc3cccnc23)CC1`, the MDR1-MDCK efflux ratio worked out at 0.854; the intrinsic clearance, human liver microsomes is at most 4.74 mL/min/kg; the intrinsic clearance, rat liver microsomes turned out to be 1520 mL/min/kg.
As for `NCCCC[C@H](N[C@@H](CCc1ccccc1)C(=O)O)C(=O)N1CCC[C@H]1C(=O)O`, the fraction unbound, rat plasma turned out to be 1.
`CCCc1cc(O)nc(SCC(=O)N2CCN(C)CC2)n1`: the MDR1-MDCK efflux ratio is 23.9; the intrinsic clearance, human liver microsomes was at most 4.74 mL/min/kg; the intrinsic clearance, rat liver microsomes is at most 10.7 mL/min/kg.
Consider `COc1c(C)cnc(CN(C)S(N)(=O)=O)c1C`, for which the MDR1-MDCK efflux ratio is 1.91; the intrinsic clearance, human liver microsomes was at most 4.74 mL/min/kg; the intrinsic clearance, rat liver microsomes is 82 mL/min/kg; the aqueous solubility was 30.6 µg/mL (≈ 118 µM).
Consider `COc1ccccc1/C=C/CN1CCCC2(C1)OCCO2`, for which the MDR1-MDCK efflux ratio was 0.549; the intrinsic clearance, human liver microsomes came out at 17.7 mL/min/kg; the intrinsic clearance, rat liver microsomes amounted to 2180 mL/min/kg.
Turning to `COc1ccc(CN(C)C(=O)Nc2ccccc2)cc1F`, the MDR1-MDCK efflux ratio worked out at 0.669; the intrinsic clearance, human liver microsomes was 18.2 mL/min/kg; the intrinsic clearance, rat liver microsomes is 644 mL/min/kg; the aqueous solubility amounted to 45.9 µg/mL (≈ 159 µM).
On to `CCc1noc(CN2CCCN(C(C)=O)c3ccccc32)n1`, for which the MDR1-MDCK efflux ratio turned out to be 1.25; the intrinsic clearance, human liver microsomes came out at 51 mL/min/kg; the intrinsic clearance, rat liver microsomes is 855 mL/min/kg; the aqueous solubility was 55.4 µg/mL (≈ 185 µM).
`CCCCCCCCc1ccc(CCC(N)(CO)CO)cc1` registered an intrinsic clearance, human liver microsomes of 7.6 mL/min/kg and an intrinsic clearance, rat liver microsomes of 17 mL/min/kg.
On to `Clc1ccc(Cc2nc(-c3cccnc3)no2)cc1`, for which the MDR1-MDCK efflux ratio is 0.458; the intrinsic clearance, human liver microsomes worked out at 26.9 mL/min/kg; the intrinsic clearance, rat liver microsomes was found to be 219 mL/min/kg; the aqueous solubility was 16.5 µg/mL (≈ 60.7 µM).
On the same counts, the results for `Cc1ncsc1CN1CCCN(c2nc3ccccc3[nH]2)CC1` are 50.4, 36.5 mL/min/kg, 518 mL/min/kg and 51.9 µg/mL (≈ 158 µM).
For `COc1c(N)ncnc1N1CCCC(C)(C)CC1`, the MDR1-MDCK efflux ratio turned out to be 0.912; the intrinsic clearance, human liver microsomes came out at 37.2 mL/min/kg; the intrinsic clearance, rat liver microsomes is 1210 mL/min/kg; the aqueous solubility was found to be 38.4 µg/mL (≈ 153 µM).
`Fc1ccccc1CN1CCN(c2ncccn2)CC1`: the MDR1-MDCK efflux ratio is 0.717; the intrinsic clearance, human liver microsomes amounted to 84.7 mL/min/kg; the intrinsic clearance, rat liver microsomes was 800 mL/min/kg; the aqueous solubility is 36.2 µg/mL (≈ 133 µM).

These data come from the Biogen ADME set (Fang et al. 2023).
